Results from patent publication US8076297B2, “Pharmaceutical composition containing polypeptide fragments of serralysins” (Centro De Ingenieria Genetica Y Biotecnologia, priority 2004, dated 2011).

Tested on: HEp-2 cells
Experiment: Anti-proliferative assay on HEp-2 cells, MTT method
Type: cell-based, human
Conditions: for effect on proliferation: same conditions as 3 μg/mL comparison; for proliferation: 3 μg/mL
Protocol: For the characterization of the antiproliferative activity of MG2327 “in vitro” a panel of human cell lines was evaluated (table 1). A total of 2000 cells, except for PBMC (20000), were seeded in 96 wells culture wells, and different concentrations of MG2327 were added. After 72 hours, the number of survival cells was estimated by addition of MTT (Skehan, P., Storeng, R., Scudiero, D., Monks, A., Mcmahon, J., Vistica, D., Warren, J. T., Bokesch, H., Kenney, S. and BOYD, M. R. 1990. J Natl Cancer Inst. 82:1107). The soluble formazan products were detected at 540 nm in a multiscan plate reader.

| Molecule | effect on proliferation | proliferation [%] |
| --- | --- | --- |
| Nc1ccn([C@@H]2O[C@H](CO)[C@@H](O)[C@@H]2O)c(=O)n1 [Ara C, reference compound] | do not showed effect |  |
| CC[C@]1(O)C[C@H]2CN(CCc3c([nH]c4ccccc34)[C@@](C(=O)OC)(c3cc4c(cc3OC)N(C=O)[C@H]3[C@@](O)(C(=O)OC)[C@H](OC(C)=O)[C@]5(CC)C=CCN6CC[C@]43[C@@H]65)C2)C1 [Vincristine, reference compound] |  | 40 |
| CC(=O)O[C@H]1C(=O)[C@@]2(C)[C@H]([C@H](OC(=O)c3ccccc3)[C@]3(O)C[C@H](OC(=O)[C@H](O)[C@@H](NC(=O)c4ccccc4)c4ccccc4)C(C)=C1C3(C)C)[C@]1(OC(C)=O)CO[C@@H]1C[C@@H]2O [Taxol, reference compound] |  | 40 |
| CN(Cc1cnc2nc(N)nc(N)c2n1)c1ccc(C(=O)N[C@@H](CCC(=O)O)C(=O)O)cc1 [Metotrexate, reference compound] | do not showed effect |  |
| CC[C@]1(O)C[C@@H]2CN(CCc3c([nH]c4ccccc34)[C@@](C(=O)OC)(c3cc4c(cc3OC)N(C)[C@H]3[C@@](O)(C(=O)OC)[C@H](OC(C)=O)[C@]5(CC)C=CCN6CC[C@]43[C@@H]65)C2)C1 [Vinvlastine, reference compound] |  | 40 |
| O=P1(N(CCCl)CCCl)NCCCO1 (stereo not drawn) [Ciclophosfamide, reference compound] | do not showed effect |  |
| COc1cccc2c1C(=O)c1c(O)c3c(c(O)c1C2=O)C[C@@](O)(C(=O)CO)C[C@@H]3O[C@H]1C[C@H](N)[C@H](O)[C@H](C)O1 [DXR, Doxorubicine, reference compound] |  | 40 |
| N.N.[Cl][Pt][Cl] [Cisplatin, reference compound] |  | 40 |
| Bleomicine [reference compound] | do not showed effect |  |
